Columns and labels:
Assay type in all cases: in vivo
[1] = test system: Yellow Fever Mosquito (Aedes aegypti, AEDSAE); assay: Bioassay on Yellow Fever Mosquito (YFM) larvae, 96-well plate; conditions: about 1 day-old larvae, 4000 ppm DMSO master plate diluted, graded after 3 days
Method: Example C: Bioassays on Yellow Fever Mosquito (Aedes aegypti, AEDSAE) (“YFM”)
Certain molecules disclosed in this document were tested against YFM using procedures described in the following paragraph. In the reporting of the results, the “YFM Rating Table” was used (See Table Section).
Master plates containing 400 μg of a molecule dissolved in 100 μL of dimethyl sulfoxide (DMSO) (equivalent to a 4000 ppm solution) are used. A master plate of assembled molecules contains 15 μL per well. To this plate, 135 μL of a 90:10 water:acetone mixture is added to each well. A robot (Biomek® NXP Laboratory Automation Workstation) is programmed to dispense 15 μL aspirations from the master plate into an empty 96-well shallow plate (“daughter” plate). There are 6 reps (“daughter” plates) created per master. The created daughter plates are then immediately infested with YFM larvae.
The day before plates are to be treated, mosquito eggs are placed in Millipore water containing liver powder to begin hatching (4 g. into 400 mL). After the daughter plates are created using the robot, they are infested with 220 μL of the liver powder/larval mosquito mixture (about 1 day-old larvae). After plates are infested with mosquito larvae, a non-evaporative lid is used to cover the plate to reduce drying. Plates are held at room temperature for 3 days prior to grading. After 3 days, each well is observed and scored based on mortality. The results are indicated in the table entitled “Table ABC: Biological Results” (See Table Section).

[2] = test system: Cabbage Looper (Trichoplusia ni, TRIPNI); assay: Bioassay on Cabbage Looper (CL), 128-well diet tray assay; conditions: 168 h, 50 μg/cm^2 on artificial diet, second instar larvae, five to seven days, 25° C., read-out: CL % Control (or Mortality) rating
Method: (§1) Example A: Bioassays on Beet Armyworm (Spodoptera exigua, LAPHEG) (“BAW”), Corn Earworm (Helicoverpa zea, HELIZE) (“CEW”), and Cabbage Looper (Trichoplusia ni, TRIPNI) (“CL”)
(§2) Certain molecules disclosed in this document were tested against BAW, CEW, and CL using procedures described in the following examples. In the reporting of the results, the “BAW, CEW, & CL Rating Table” was used (See Table Section).
Bioassays on CL were conducted using a 128-well diet tray assay. one to five second instar CL larvae were placed in each well (3 mL) of the diet tray that had been previously filled with 1 mL of artificial diet to which 50 μg/cm^2 of the test molecule (dissolved in 50 μL of 90:10 acetone-water mixture) had been applied (to each of eight wells) and then allowed to dry. Trays were covered with a clear self-adhesive cover and held at 25° C., 14:10 light-dark for five to seven days. Percent mortality was recorded for the larvae in each well; activity in the eight wells was then averaged. The results are indicated in the table entitled “Table ABC: Biological Results” (See Table Section).

[3] = test system: Beet Armyworm (Spodoptera exigua, LAPHEG); assay: Bioassay on Beet Armyworm (BAW), 128-well diet tray assay; conditions: 168 h, 50 μg/cm^2 on artificial diet, second instar larvae, five to seven days, 25° C., read-out: BAW % Control (or Mortality) rating
Method: as §1, §2
Bioassays on BAW were conducted using a 128-well diet tray assay. one to five second instar BAW larvae were placed in each well (3 mL) of the diet tray that had been previously filled with 1 mL of artificial diet to which 50 μg/cm^2 of the test molecule (dissolved in 50 μL of 90:10 acetone-water mixture) had been applied (to each of eight wells) and then allowed to dry. Trays were covered with a clear self-adhesive cover and held at 25° C., 14:10 light-dark for five to seven days. Percent mortality was recorded for the larvae in each well; activity in the eight wells was then averaged. The results are indicated in the table entitled “Table ABC: Biological Results” (See Table Section).

[4] = test system: Corn Earworm (Helicoverpa zea, HELIZE); assay: Bioassay on Corn Earworm (CEW), 128-well diet tray assay; conditions: 168 h, 50 μg/cm^2 on artificial diet, second instar larvae, five to seven days, 25° C., read-out: CEW % Control (or Mortality) rating
Method: as §1, §2
Bioassays on CEW were conducted using a 128-well diet tray assay. one to five second instar CEW larvae were placed in each well (3 mL) of the diet tray that had been previously filled with 1 mL of artificial diet to which 50 μg/cm^2 of the test molecule (dissolved in 50 μL of 90:10 acetone-water mixture) had been applied (to each of eight wells) and then allowed to dry. Trays were covered with a clear self-adhesive cover, and held at 25° C., 14:10 light-dark for five to seven days. Percent mortality was recorded for the larvae in each well; activity in the eight wells was then averaged. The results are indicated in the table entitled “Table ABC: Biological Results” (See Table Section).

Row | SMILES | YFM % Control (or Mortality) rating [1] | mortality at 50 µg/cm2 [2] [%] | mortality at 50 µg/cm2 [3] [%] | mortality at 50 µg/cm2 [4] [%]
1 | CC(C)c1ccccc1-n1ccnc1NC(=O)Nc1ccc(-c2ncn(-c3ccc(OC(F)(F)C(F)(F)F)cc3)n2)cc1 [F34, 1-(1-(2-isopropylphenyl)-1H-imidazol-2-yl)-3-(4-(1-(4-(perfluoroethoxy)phenyl)-1H-1,2,4-triazol-3-yl)phenyl)urea] | D (No activity noticed in this bioassay) | 50 to 100 | 50 to 100 | 50 to 100
2 | O=C(Nc1ccc(-c2ncn(-c3ccc(OC(F)(F)C(F)(F)F)cc3)n2)cc1)Nc1nccn1-c1cccc(Cl)c1 [F35, 1-(1-(3-Chlorophenyl)-1H-imidazol-2-yl)-3-(4-(1-(4-(perfluoroethoxy)phenyl)-1H-1,2,4-triazol-3-yl)phenyl)urea] | D (No activity noticed in this bioassay) | 50 to 100 | 50 to 100 | 50 to 100
3 | Cc1ccc(-c2nonc2NC(=O)Nc2ccc(-c3ncn(-c4ccc(OC(F)(F)F)cc4)n3)cc2)c(C)c1 [F36, 1-(4-(2,4-Dimethylphenyl)-1,2,5-oxadiazol-3-yl)-3-(4-(1-(4-(trifluoromethoxy)phenyl)-1H-1,2,4-triazol-3-yl)phenyl)urea] | A (80-100) | 50 to 100 | 50 to 100 | 50 to 100
4 | O=C(Nc1ccc(-c2ncn(-c3ccc(OC(F)(F)F)cc3)n2)cc1)Nc1nonc1-c1ccccc1 [F37, 1-(4-Phenyl-1,2,5-oxadiazol-3-yl)-3-(4-(1-(4-(trifluoromethoxy)phenyl)-1H-1,2,4-triazol-3-yl)phenyl)urea] | A (80-100) | 50 to 100 | 50 to 100 | 50 to 100
5 | COc1ccccc1-c1nonc1NC(=O)Nc1ccc(-c2ncn(-c3ccc(OC(F)(F)F)cc3)n2)cc1 [F38, 1-(4-(2-Methoxyphenyl)-1,2,5-oxadiazol-3-yl)-3-(4-(1-(4-(trifluoromethoxy)phenyl)-1H-1,2,4-triazol-3-yl)phenyl)urea] | A (80-100) | 50 to 100 | 50 to 100 | 50 to 100
6 | COc1ccc(-c2nonc2NC(=O)Nc2ccc(-c3ncn(-c4ccc(OC(F)(F)F)cc4)n3)cc2)cc1 [F39, 1-(4-(4-Methoxyphenyl)-1,2,5-oxadiazol-3-yl)-3-(4-(1-(4-(trifluoromethoxy)phenyl)-1H-1,2,4-triazol-3-yl)phenyl)urea] | D (No activity noticed in this bioassay) | 50 to 100 | 0 to 50 | 50 to 100
7 | Cc1cc(C)c(-c2nonc2NC(=O)Nc2ccc(-c3ncn(-c4ccc(OC(F)(F)F)cc4)n3)cc2)c(C)c1 [F40, 1-(4-Mesityl-1,2,5-oxadiazol-3-yl)-3-(4-(1-(4-(trifluoromethoxy)phenyl)-1H-1,2,4-triazol-3-yl)phenyl)urea] | B (More than 0-Less than 80) | 50 to 100 | 50 to 100 | 50 to 100
8 | COc1cccc(-c2nonc2NC(=O)Nc2ccc(-c3ncn(-c4ccc(OC(F)(F)F)cc4)n3)cc2)c1 [F41, 1-(4-(3-Methoxyphenyl)-1,2,5-oxadiazol-3-yl)-3-(4-(1-(4-(trifluoromethoxy)phenyl)-1H-1,2,4-triazol-3-yl)phenyl)urea] | B (More than 0-Less than 80) | 50 to 100 | 50 to 100 | 50 to 100
9 | O=C(Nc1ccc(-c2ncn(-c3ccc(OC(F)(F)F)cc3)n2)cc1)Nc1nonc1-c1c(Cl)cccc1Cl [F42, 1-(4-(2,6-Dichlorophenyl)-1,2,5-oxadiazol-3-yl)-3-(4-(1-(4-(trifluoromethoxy)phenyl)-1H-1,2,4-triazol-3-yl)phenyl)urea] | D (No activity noticed in this bioassay) | 50 to 100 | 50 to 100 | 50 to 100
10 | Cc1cc(Cl)ccc1-c1nonc1NC(=O)Nc1ccc(-c2ncn(-c3ccc(OC(F)(F)F)cc3)n2)cc1 [F43, 1-(4-(4-Chloro-2-methylphenyl)-1,2,5-oxadiazol-3-yl)-3-(4-(1-(4-(trifluoromethoxy)phenyl)-1H-1,2,4-triazol-3-yl)phenyl)urea] | A (80-100) | 50 to 100 | 50 to 100 | 50 to 100
11 | CCc1ccccc1-c1nonc1NC(=O)Nc1ccc(-c2ncn(-c3ccc(OC(F)(F)F)cc3)n2)cc1 [F44, 1-(4-(2-Ethylphenyl)-1,2,5-oxadiazol-3-yl)-3-(4-(1-(4-(trifluoromethoxy)phenyl)-1H-1,2,4-triazol-3-yl)phenyl)urea] | D (No activity noticed in this bioassay) | 50 to 100 | 50 to 100 | 50 to 100
12 | O=C(Nc1ccc(-c2ncn(-c3ccc(OC(F)(F)F)cc3)n2)cc1)Nc1nonc1-c1ccccc1OC(F)(F)F [F45, 1-(4-(2-(Trifluoromethoxy)phenyl)-1,2,5-oxadiazol-3-yl)-3-(4-(1-(4-(trifluoromethoxy)phenyl)-1H-1,2,4-triazol-3-yl)phenyl)urea] | A (80-100) | 50 to 100 | 50 to 100 | 50 to 100
13 | FC(F)(F)Oc1ccc(-n2cnc(-c3ccc(CCNC(=S)Nc4ccnn4-c4ccccc4)cc3)n2)cc1 [F65, 1-(1-phenyl-1H-pyrazol-5-yl)-3-(4-(1-(4-(trifluoromethoxy)phenyl)-1H-1,2,4-triazol-3-yl)phenethyl)thiourea] | A (80-100) | 50 to 100 | 50 to 100 | 50 to 100
